Source: US11498928B2, “Macrocyclic spiroethers as Mcl-1 inhibitors” (ASCENTAGE PHARMA (SUZHOU) CO., LTD., priority 2019, dated 2022)
pIC50: −log10 of the molar value.

Legend:
NCI-H929 cells = assay: Cell viability assay (NCI-H929 cells), CCK-8; assay type: cell-based; details: 5% FBS
Experimental: NCI-H929 cells were obtained from American Type Culture Collection (ATCC). Cells were maintained in the recommended culture medium (RPMI 1640) with 10% FBS and 0.05 mM BME at 37° C. and an atmosphere of 5% CO2.
The effect of Compounds on cell viability was determined using Cell Counting Kit-8 (CCK-8) assay according to the manufacturer's instructions. 95 μL of NCI-H929 cell suspension (20000 cells/well) in culture medium were seeded into 96-well plates and cultured 4 hrs. Each tested compound was serially diluted in DMSO, then 5 μL of the compound or DMSO was diluted in 95 μL medium once more. At last, 5 μL of the compound dilution was added to the corresponding well of the cell plate. After the addition of the tested compound, the cells were incubated at 37° C. in an atmosphere of 5% CO2 for 24 hrs. At the end, 10 μL of CCK-8 solution was added to each well of the plate and incubated for 1-4 hours. The plates were read at 450 nm on the microplate reader (BioTek Synergy 1MF). The readings were normalized to the vehicle cells, and the IC50 was calculated by nonlinear regression analysis using GraphPad Prism 6 software. Cell Viability Assay (OPM-2 cells)

OPM-2 cells = assay: Cell viability assay (OPM-2 cells), CCK-8; assay type: cell-based; details: 5% FBS
Experimental: OPM-2 cells were obtained from Deutsche Sammlung von Mikroorganismen and Zellkulturen GmbH (DSMZ). Cells were maintained in the recommended culture medium with 10% FBS at 37° C. and an atmosphere of 5% CO2.
The effect of representative Compounds of the Disclosure on cell viability was determined using Cell Counting Kit-8 (CCK-8) assay (Shanghai Life iLab Bio Technology) according to the manufacturer's instructions. Each tested compound was serially diluted in culture medium, 100 μL of the compound dilution was added into 96-well plates. 100 μL of an OPM-2 cell suspension (20000 cells/well) in culture medium were seeded into the corresponding well of the plate and the cells were incubated at 37° C. in an atmosphere of 5% CO2 for 24 hours. In the next day, 20 μL of CCK-8 solution was added to each well of the plate and incubated for 4 hours.
The plates were read at 450 nm on the microplate spectrophotometer (SpectraMax plus 384, Molecular devices). The readings were normalized to the vehicle cells, and the IC50 was calculated by nonlinear regression analysis using GraphPad Prism 6 software.

[1] = molecular target: T1, Mcl-1 protein (residues 171-323) (Homo sapiens, UniProt Q07820); assay: Inhibition of Mcl-1 by fluorescence polarization (FP) competitive binding assay with FAM-Bid tracer; details: 2 nM FAM-Bid, 20 nM Mcl-1, 30 min
T1 construct: Tag-free Mcl-1 protein (residues 171-323) was used in the FP assay
Experimental: Inhibition of Mcl-1 by Fluorescence Polarization (FP) Assay.
The relative binding potency of representative Compounds of the Disclosure was determined by a fluorescence polarization (FP) assay (Long et al, BMC Biotechnology 13:45 (2013)). The method used a fluorescein labelled peptide (FAM-Bid) which binds to the Mcl-1 protein leading to an increased anisotropy measured in milli-polarization (mP) values using a plate reader. […] Tag-free Mcl-1 protein (residues 171-323) was used in the FP assay (Mady et al, Scientific Reports 8: 10210-10210 (2018); Yang et al, ACS Med. Chem. Lett. 3:308-312 (2012)).
A 10-points serial dilution of each compound was prepared in DMSO and 5 μL solution was transferred into flat bottomed, 96-well back plate (final DMSO concentration 5%). 120 μL of Buffer (PBS, 0.01% BGG (Sigma Cat. #SRE0011), 0.01% Triton X-100), containing the Fluorescein labelled peptide (Final concentration 2 nM) and Mcl-1 protein (final concentration 20 nM) was then added. Assay plates were incubated 30 mins at room temperature with gentle shaking before FP was measured on a Biotek Synergy 1MF reader (Ex. 485 nm, Em. 528 nm, Cut off 510 nm) and mP calculated. The binding of increasing doses of test compounds was expressed as a percentage reduction in mP compared to a window established between 5% DMSO only and 100% inhibition controls (no Mcl-1 protein). 10-points dose response curves were plotted with GraphPad software using Sigmoidal Dose-Response Model and the IC50 values were determined by nonlinear regression fitting of the competition curves. Cell Viability Assay (NCI-H929 cells)

T1 sequence (Q07820 171-323): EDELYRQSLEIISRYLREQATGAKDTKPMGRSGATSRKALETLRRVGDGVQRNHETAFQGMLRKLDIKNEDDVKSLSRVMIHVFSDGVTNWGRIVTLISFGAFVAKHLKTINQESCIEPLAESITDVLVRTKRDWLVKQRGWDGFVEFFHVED

SMILES	pIC50 (NCI-H929 cells; 24 h)	pIC50 (OPM-2 cells; 24 h)	pIC50 [1]	pIC50 (NCI-H929 cells; Homo sapiens, NCI-H929, 24 h)	pIC50 (OPM-2 cells; Homo sapiens, OPM-2, 24 h)
CO[C@@H]1C2=CC(C2)CC(C)S(=O)(=O)NC(=O)c2ccc3c(c2)N(C[C@@H]2CC[C@H]21)C[C@@]1(CCCc2cc(Cl)ccc21)CO3 (single isomer, unassigned) [7 (Isomer 1)]	6.22	5.95	8.38		
CO[C@H]1C2=C[C@H](C2)[C@H](C)CS(=O)(=O)NC(=O)c2ccc3c(c2)N(C[C@@H]2CC[C@H]21)C[C@@]1(CCCc2c1ccc(Cl)c2F)CS3 (single isomer, unassigned) [24 (isomer 2)]			8.32	5.37	5.48
C[C@@H]1[C@@H](C)S(=O)(=O)NC(=O)c2ccc3c(c2)N(C[C@@H]2CC[C@H]2[C@@H](OCCN(C)S(C)(=O)=O)C2=C[C@H]1C2)C[C@@]1(CCCc2c1ccc(Cl)c2F)CO3 [compound 79, N-(2-(((1S,11′R,12′S,13′R,16′R,16a′R,18a′R,E)-6-chloro-5-fluoro-11′,12′-dimethyl-10′,10′-dioxido-8′-oxo-3,4,8′,9′,12′,13′,16′,16a′,17′,18′,18a′,19′-dodecahydro-1′H,2H,3′H, 11′H-spiro[naphthalene-1,2′-[5,7]etheno[13,15]methanocyclobuta[i][1,4]oxazepino[3,4-f][1]thia[2,7]diazacyclohexadecin]-16′-yl)oxy)ethyl)-N-methylmethanesulfonamide]			7.82	7.24	7.28
CNC[C@]1(OC)C2=C[C@@H](C2)[C@H](C)[C@@H](C)S(=O)(=O)NC(=O)c2ccc3c(c2)N(C[C@@H]2CC[C@H]21)C[C@@]1(CCCc2c1ccc(Cl)c2F)CO3 [compound 52, (1S,11′R,12′S,13′R,16′R,16a′R,18a′R,E)-6-chloro-5-fluoro-16′-methoxy-11′,12′-dimethyl-16′-((methylamino)methyl)-3,4,12′,13′,16′,16a′,17′,18′,18a′,19′-decahydro-1′H,2H,3′H,11′H-spiro[naphthalene-1,2′-[5,7]etheno[13,15]methanocyclobuta[i][1,4]oxazepino[3,4-f][1]thia[2,7]diazacyclohexadecin]-8′(9′H)-one 10′,10′-dioxide]			8.15	7.72	7.64
C[C@@H]1[C@@H](C)S(=O)(=O)NC(=O)c2ccc3c(c2)N(C[C@@H]2CC[C@H]2[C@@H](OCCN2C[C@@H](C)N(C)[C@@H](C)C2)C2=C[C@H]1C2)C[C@@]1(CCCc2c1ccc(Cl)c2F)CO3 [compound 84, (1S,11′R,12′S,13′R,16′R,16a′R,18a′R,E)-6-chloro-5-fluoro-11′,12′-dimethyl-16′-(2-((3 S,5R)-3,4,5-trimethylpiperazin-1-yl)ethoxy)-3,4,12′,13′,16′,16a′,17′,18′,18a′,19′-decahydro-1′H,2H,3′H, 11′H-spiro[naphthalene-1,2′-[5,7]etheno[13,15]methanocyclobuta[i][1,4]oxazepino[3,4-f][1]thia[2,7]diazacyclohexadecin]-8′(9′H)-one 10′,10′-dioxide]			7.70	7.12	7.19
CO[C@H]1C2=CC(C2)[C@@H](C)[C@H](C)S(=O)(=O)NC(=O)c2ccc3c(c2)N(C[C@@H]2CC[C@H]21)C[C@@]1(CCCc2cc(Cl)ccc21)CO3 (single isomer, unassigned) [12 (Isomer 2)]	5.34	4.91	7.82		
CC(C)OC(=O)CO[C@H]1C2=C[C@@H](C2)[C@H](C)[C@@H](C)S(=O)(=O)NC(=O)c2ccc3c(c2)N(C[C@@H]2CC[C@H]21)C[C@@]1(CCCc2c1ccc(Cl)c2F)CO3 [compound 73, isopropyl 2-(((1S,11′R,12′S,13′R,16′R,16a′R,18a′R,E)-6-chloro-5-fluoro-11′,12′-dimethyl-10′,10′-dioxido-8′-oxo-3,4,8′,9′,12′,13′,16′,16a′,17′,18′,18a′,19′-dodecahydro-1′H,2H,3′H,11′H-spiro[naphthalene-1,2′-[5,7]etheno[13,15]methanocyclobuta[i][1,4]oxazepino[3,4-f][1]thia[2,7]diazacyclohexadecin]-16′-yl)oxy)acetate]			7.72	6.82	7.17
CO[C@@]1(CN2CCNCC2)C2=C[C@@H](C2)[C@H](C)[C@@H](C)S(=O)(=O)NC(=O)c2ccc3c(c2)N(C[C@@H]2CC[C@H]21)C[C@@]1(CCCc2c1ccc(Cl)c2F)CO3 [compound 41, (1S,11′R,12′S,13′R,16′R,16a′R,18a′R,E)-6-chloro-5-fluoro-16′-methoxy-11′,12′-dimethyl-16′-(piperazin-1-ylmethyl)-3,4,12′,13′,16′,16a′,17′,18′,18a′,19′-decahydro-1′H,2H,3′H, 11′H-spiro[naphthalene-1,2′-[5,7]etheno[13,15]methanocyclobuta[i][1,4]oxazepino[3,4-f][1]thia[2,7]diazacyclohexadecin]-8′(9′H)-one 10′,10′-dioxide]			7.59	6.72	6.81
CO[C@H]1C2=CC3(C2)CN(C3)S(=O)(=O)NC(=O)c2ccc3c(c2)N(C[C@@H]2CC[C@H]21)C[C@@]1(CCCc2cc(Cl)ccc21)CO3 [compound 31, (1S,16′R,16a′R,18a′R)-6-chloro-16′-methoxy-3,4,16′,16a′,17′,18′,18a′,19′-octahydro-1′H,2H,3′H,12′H-spiro[naphthalene-1,2′-[5,7]etheno[11,13:13,15]dimethanocyclobuta[i][1,4]oxazepino[3,4-f][1]thia[2,7,16]triazacyclohexadecin]-8′(9′H)-one 10′,10′-dioxide]			7.96	5.01	5.03
C[C@@H]1[C@@H](C)S(=O)(=O)NC(=O)c2ccc3c(c2)N(C[C@@H]2CC[C@H]2[C@@H](OCCN2CCCC2)C2=C[C@H]1C2)C[C@@]1(CCCc2c1ccc(Cl)c2F)CO3 [compound 66, (1S,11′R,12′S,13′R,16′R,16a′R,18a′R,E)-6-chloro-5-fluoro-11′,12′-dimethyl-16′-(2-(pyrrolidin-1-yl)ethoxy)-3,4,12′,13′,16′,16a′,17′,18′,18a′,19′-decahydro-1′H,2H,3′H,11′H-spiro[naphthalene-1,2′-[5,7]etheno[13,15]methanocyclobuta[i][1,4]oxazepino[3,4-f][1]thia[2,7]diazacyclohexadecin]-8′(9′H)-one 10′,10′-dioxide]			7.82	8.11	7.51
CO[C@H]1C2=CC(CCS(=O)(=O)NC(=O)c3ccc4c(c3)N(C[C@@H]3CC[C@H]31)C[C@@]1(CCCc3cc(Cl)ccc31)CO4)C2 (single isomer, unassigned) [Cpd. No. 1 (Isomer 2)]	5.82	5.61	8.24		
CO[C@H]1C2=CC(C)(C2)[C@H](C)CS(=O)(=O)NC(=O)c2ccc3c(c2)N(C[C@@H]2CC[C@H]21)C[C@@]1(CCCc2cc(Cl)ccc21)CO3 (single isomer, unassigned) [Cpd. No. 18 (Isomer 2)]	6.36	5.92	8.31		
